| melting point [°C] | SMILES |
| --- | --- |
| 186 to 189 | c1cncc(-c2cccn3cnnc23)c1 |
| 156 to 157 | Cc1cc(SCc2ccc(-c3ccc(C(F)(F)F)cn3)cc2)c2c(c1OCC(=O)O)CCCO2 |
| 200 to 202 | COCOc1ccc2cc(C3CCN(C)CC3)[nH]c(=O)c2c1 |
| 151 to 154 | O=C(O)C1C=CCN2C(=O)C(CCS)(Cc3ccccc3)C(=O)N12 (stereo not drawn) |
| 96 | CCCCN(CCCC)CCCCOc1ccc(S(=O)(=O)c2c(C(C)C)cn3ccccc23)cc1 |
| 175 to 177 | CCN(Cc1cc(Br)ccc1OCC1CC1)c1ccc(C(=O)O)cn1 |
| 256 to 258 | O=c1c(Cl)cc2nc3ccc(F)cc3sc-2c1Cl |
| 40 to 43 | CC(C)(C)OC(=O)NCC(Cl)c1cccs1 (stereo not drawn) |
| 106 to 108 | CCCCCCCCc1ccc(N(c2ccc(CCCCCCCC)cc2)C2(c3c(C)n(CC)c4ccccc34)OC(=O)c3ccccc32)cc1 (stereo not drawn) |
| 289 to 293 | COc1ccc(-c2nnc3c4ccccc4c(Nc4ccc(-c5nnn(C)n5)cc4)nn23)cc1 |
| 106 to 108 | O=C(OCc1ccccc1)c1ncoc1CCNC(=O)[C@H](O)Cc1ccccc1 |
| 190 to 196 | Nc1nc(=O)n(CCCN2CCN(C(c3ccccc3)c3ccccc3)CC2)c2ccccc12 |
| 130 to 131 | O=C(NCc1ncc(O)c2ccccc12)c1ccccc1 |
| 93 to 94 | COC(=O)c1ccc(O)c(C(=O)OC)c1 |
| 145 to 147 | O=C1c2ccccc2C(=O)N1Cc1cc(=O)c(OC(c2ccccc2)c2ccccc2)cn1OC(c1ccccc1)c1ccccc1 |
| 155 to 157 | O=C(O)COc1cc(NS(=O)(=O)c2cccs2)c2ccccc2c1O |
| 187 to 188 | Cc1ccc(-c2c(C(=O)NCc3cc(C(F)(F)F)cc(C(F)(F)F)c3)n(CCCCO)c(=O)c3ncccc23)cc1 |
| 220 to 223 | COc1ccc(-c2nc3cc(F)ccc3s2)cc1OC(=O)c1ccccc1Br |
| 199 to 202 | C=C1CC2CC(O)CCC2(C)C2CC(O)C3(C)C(C(C)CCC(=O)O)CCC3C12 (stereo not drawn) |
| 170 to 173 | COC(=O)c1c(-c2ccc(F)cc2)c2c3ccccc3ccn2c1C(C)C |
| 265 to 266 | Cc1ccc(-c2nnc(N3CCN(c4ccc(O)cc4)CC3)c3ccccc23)cc1 |
| 150 to 155 | O=C1CC(c2ccc(OCc3ccccc3)cc2)CN1O (stereo not drawn) |

| melting point [°C] | SMILES |
| --- | --- |
| 135 to 136 | Cc1c2n(c3ccccc13)C(=O)C(C(O)c1cn(C(c3ccccc3)(c3ccccc3)c3ccccc3)c(C)n1)CC2 (stereo not drawn) |
| 127 to 129 | OCn1c2ccccc2c2ccccc21 |
| 111 to 113 | CCN(CC)C(=O)c1cc(-c2ccccc2)c2ccccc2c1-c1ccccc1 |
| 111 to 113 | COc1cccc(COc2cncc(Cl)n2)c1 |
| 87 to 89 | Cc1cc(C)cc(C(=O)N2CCN(C(=O)CNC3CCN(Cc4ccc(-c5ccccc5)cc4)CC3)C(c3ccc(Cl)c(Cl)c3)C2)c1 (racemic) |
| 127 to 129 | CCCCCCCCCC(=O)Nc1cc(NC(=O)CCCCCCCCC)cc(N(CC(=O)OCc2ccccc2)CC(=O)OCc2ccccc2)c1 |
| 110 to 112 | COc1ccc2c(c1)c(OC(C)C)c(C(=O)O)n2C |
| 85 to 87 | CCCCO[PH](=O)Cc1cc(C(C)(C)C)c(O)c(C(C)(C)C)c1 (stereo not drawn) |
| 262 to 263 | NC(=O)c1cccc(NC(=O)C(F)(F)F)c1 |
| 92 to 93 | Cc1cccc(SCc2c(C(C)C)nc(C(C)C)c(CO)c2-c2ccc(F)cc2)c1 |
| 94 to 95 | CS[C@@H]1CC(=O)N(Cc2ccc(Oc3ccc(F)cc3)nc2)C1 |
| 138 | O=[N+]([O-])c1cccc(S(=O)(=O)NCCc2ccncc2)c1 |
| 156 to 158 | CC(C)(C)c1ccc(COCCCCCCNC(=O)c2cc(-c3cccc(C(F)(F)F)c3)c(OCC(=O)O)c(-c3cccc(C(F)(F)F)c3)c2)cc1 |
| 160 to 161 | COc1cccc(-n2c(=O)oc3ccc(-c4ccc(F)cc4F)cc3c2=O)c1 |
| 81 to 82 | Cc1cc(C2=C(c3cccc(F)c3)C(=O)C(C)(C)O2)ccc1S(N)(=O)=O |
| 188 to 190 | N#Cc1ccccc1-n1nc(C2CCN(C#N)CC2)c2ccccc21 |
| 41 to 43 | O=C(c1ccccc1)c1ccc(Br)s1 |
| 156 to 157 | CCOCCCc1ccc(Oc2ccc3c(c2)C=C(C(=O)Nc2ccc(CN(C)C4CCOCC4)cc2)CCS3(=O)=O)cc1 |
| 71 to 73 | CCc1cc([N+](=O)[O-])c(N)c([N+](=O)[O-])c1COC |
| 87 to 92 | CC(C)C[C@H](NC(=O)[C@H](Cc1c[nH]cn1)NC(=O)C(CC(=O)NCCc1ccccc1)Cc1cccc2ccccc12)[C@@H](O)CCO (stereo partly drawn) |
| 58 | Cc1cccc(C)c1N(Cn1cc(C(C)C)cn1)C(=O)CCl |
| 85 to 88 | O=C(OC1CCCCCCC1)n1c(-c2cscn2)nc2ccccc21 |

| melting point [°C] | SMILES |
| --- | --- |
| 96 to 98 | CC(C)(O)P(=O)(c1ccccc1)c1ccccc1 |
| 142 to 143 | CCOC(=O)c1cnc(-c2cc3cccc(N(C)S(=O)(=O)c4cccs4)c3n2COC)s1 |
| 45 to 48 | CCSc1nccnc1C(=O)CC |
| 110 | CCOC(=O)C1=C(N)NC(N)=C(C(=O)OC(C)C)C1c1ccccc1[N+](=O)[O-] (stereo not drawn) |
| 172 to 174 | NC(=O)Nc1ccc2c(c1)C(CN1CCC(c3ccc(F)cc3)CC1)CC2 (stereo not drawn) |
| 217 | NC(N)=Nc1nc(-c2ccc(C(=O)NC(=O)c3cccnc3)o2)cs1 |
| 211 to 213 | CC(C)(C)OC(=O)c1nc(-c2ccccc2)[nH]c1-c1ccccn1 |
| 236 to 238 | CNC(=O)n1cc(Br)cnc1=O |
| 102 to 104 | CC(C)CCc1c(-c2ccc(S(C)(=O)=O)c(F)c2)cnn(-c2ccc(F)c(Cl)c2)c1=O |
| 72 to 73 | CCOC(=O)COc1ccc2c(c1)C(=O)CC1(CCCCC1)O2 |
| 81 to 94 | CCCCN(C(C)=O)C1CC(C)(C)N(OC(=O)C(C)(C)C)C(C)(C)C1 |
| 165 to 166 | CC(C)(C)OC(=O)c1sc(Oc2ccc3c(c2)OCO3)c2c1CCc1cnoc1-2 |
| 189 to 193 | CCc1cc(C(=O)O)ccc1C(N)C(=O)O (stereo not drawn) |
| 262 to 285 | CC(O)c1cnc2c(-c3cc(-c4ccccc4)cs3)cnn2c1O (stereo not drawn) |
| 87 to 89 | O=C(CCC(=O)c1ccccc1)NC1CNCCO1 (stereo not drawn) |
| 168 to 170 | CS(=O)CCNC(=O)CC(O)(Cn1cncn1)c1ccc(Cl)cc1Cl (stereo not drawn) |
| 124 to 127 | CCCCCN(C[C@H]1CCC[C@H](CN(CCCCC)C(=O)Nc2ccc(N(C)C)cc2)C1)C(=O)Nc1ccc(N(C)C)cc1 (relative stereo) |
| 83 to 84 | CC(=O)OCc1cccc2sc(-c3ccccc3)nc12 |
| 164 to 166 | CC1(C(F)(F)F)CC(=O)C(C(=O)c2ccc(C(F)(F)F)cc2[N+](=O)[O-])C(=O)N1 (stereo not drawn) |
| 218 to 220 | O=C1CCC(N2Cc3cc(CNC(=O)Nc4ccc(SC(F)(F)F)cc4)ccc3C2=O)C(=O)N1 (stereo not drawn) |
| 179 to 180 | CCOC(=O)C(=O)CC(=O)c1cn(Cc2ccc(F)cc2)c2c(F)cccc2c1=O |
| 125 to 127 | OCc1cccc2c(Br)c3ccccc3cc12 |

| melting point [°C] | SMILES |
| --- | --- |
| 165 | CC(=O)NCCOc1ccc([N+](=O)[O-])cc1O |
| 144 to 146 | CC(C)c1ccc(C2(O)Cc3ccccc3C2=O)c(O)c1 (stereo not drawn) |
| 165 to 169 | CN(C)CC1CCc2cc(OCc3ccc(NC(=O)c4cc5ccccc5s4)cc3)ccc2C1 (stereo not drawn) |
| 182 to 185 | CC(C)CC(=O)Nc1cccc(-c2ccnc3c(-c4cccc(-c5ccccc5)c4)cnn23)c1 |
| 178 to 180 | O=C(O)CCCc1ccc(NS(=O)(=O)c2ccc(Cl)cc2)cn1 |
| 138 to 139 | COc1ccc(Br)cc1C12CC3CC(CC(C3)C1)C2 |
| 230 to 232 | COc1ccc(-n2c(=O)c(C)nc3ccccc32)cc1 |
| 236 to 239 | O=C(Nc1cnccc1C(=O)O)OCc1cc2cc(-c3ccccc3)ccc2o1 |
| 74 to 75 | COc1cc(OC(C)C)cc2c1-c1c(OC(C)C)cccc1C2=O |
| 87 to 90 | Cc1cc(OCCNC(=O)C2Cc3ccccc3N2S(=O)(=O)c2ccc(-c3cccc(C(F)(F)F)c3)cc2)ccc1CC(=O)O (stereo not drawn) |
| 152 to 155 | COc1cc(-c2csc(NS(=O)(=O)c3ccccc3)n2)ccc1OCc1ccccc1 |
| 320 | O=c1ccc2c(=O)c3ccccc3ccc2[nH]1 |
| 141 to 143 | Cc1cc(OCc2sc(-c3ccc(C(F)(F)F)cc3)nc2C)ccc1CCC(=O)O |
| 50 to 60 | Cc1noc(NS(=O)(=O)c2ccccc2-c2ccc(-c3ncco3)cc2CN(Cc2ccccc2)CC(F)(F)F)c1C |
| 92 to 94 | CC(C)(C)[Si](C)(C)OC1=Cc2ccccc2C1[Si](C)(C)C1C(O[Si](C)(C)C(C)(C)C)=Cc2ccccc21 (stereo not drawn) |
| 222 to 223 | COc1cc(-c2cnc3[nH]cc(C(=O)C(C)(CO)CO)c3n2)cc(OC)c1OC |
| 132 to 134 | OCc1cc(NCCCCCCBr)ccc1O |
| 218 to 220 | Cn1ncc(C(=O)N2CCOCC2)c1C(=O)Nc1ccn2nc(-c3cccnc3)nc2c1 |
| 64 to 66 | CCC(O)(CC)c1cc(Br)ccc1N |

| SMILES | melting point [°C] |
| --- | --- |
| COC(=O)Cc1nnc2n1-c1ccc(Cl)cc1C(c1ccccc1)=NC2 | 202 to 204 |
| CCc1c(C(=O)C(C)C)c2ccc(-c3nnn[nH]3)cc2n1Cc1ccccc1Cl | 160 to 163 |
| CN1CC=C(c2ccccc2Cc2ccccc2)CC1 | 55 to 57 |
| Cc1c(C2(c3cccs3)CCC(c3ccccc3)(N(C)C)CC2)[nH]c2ccccc12 (stereo not drawn) | 202 to 205 |
| O=[N+]([O-])c1ccc2[nH]cc(C3=CCN(CC4CC4)CC3)c2c1 | 187 to 188 |
| O=C(NC1(C2CC2)CC1)c1c(NC(=O)c2cc(C(F)(F)F)nn2-c2ncccc2Cl)c(Br)cc2cn[nH]c12 | 212 to 214 |
| COC(=O)c1coc(-c2ncn3c2CN(C)C(=O)c2ccccc2-3)n1 | 264 to 265 |
| COCOCc1cc(-c2ccc(C(=O)O)cc2)cc(-c2ccc3c(c2)C(C)(C)CCC3(C)C)c1 | 88 |

— a melting point compilation (Tetko et al.; mined from patent text by program, amines drawn as free bases though some values may be those of a salt)
